Reference: US9492471B2, “Methods of treating a disease or disorder associated with Bruton'S Tyrosine Kinase” (Celgene Avilomics Research, Inc., priority 2013, dated 2016)
Where two headings read alike, the source gives them in different places.

How the values were obtained:
DYRK3 = biological target: T1, DYRK3 (Homo sapiens, UniProt O43781); assay: HotSpot kinase profiling; type: biochemical
T1 construct: purchased Reaction Biology Corp
T1 sequence (O43781 1-588): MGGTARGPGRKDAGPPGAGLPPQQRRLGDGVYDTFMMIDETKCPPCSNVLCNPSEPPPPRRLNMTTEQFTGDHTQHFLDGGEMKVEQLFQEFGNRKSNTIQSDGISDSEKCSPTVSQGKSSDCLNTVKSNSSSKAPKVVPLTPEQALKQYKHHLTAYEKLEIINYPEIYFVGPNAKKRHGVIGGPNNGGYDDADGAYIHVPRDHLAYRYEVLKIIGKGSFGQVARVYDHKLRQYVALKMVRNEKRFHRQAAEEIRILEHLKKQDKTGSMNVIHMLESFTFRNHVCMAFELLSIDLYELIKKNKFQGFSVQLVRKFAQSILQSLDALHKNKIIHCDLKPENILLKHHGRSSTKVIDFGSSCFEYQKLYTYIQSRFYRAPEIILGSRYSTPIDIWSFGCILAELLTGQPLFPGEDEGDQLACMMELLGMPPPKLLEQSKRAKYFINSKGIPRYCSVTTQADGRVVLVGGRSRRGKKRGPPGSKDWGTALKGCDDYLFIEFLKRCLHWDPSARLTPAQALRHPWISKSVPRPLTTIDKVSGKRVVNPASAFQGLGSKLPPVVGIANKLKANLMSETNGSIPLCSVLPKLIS
How it was run: (§1)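 Activity is measured by radiolabel transfer captured on P81 filters after a 2 h room-temperature reaction of kinase, substrate and cofactors. Values are percent inhibition against DMSO.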

c-MER = biological target: T2, c-MER (Homo sapiens, UniProt Q12866); assay: HotSpot kinase profiling; type: biochemical
T2 construct: purchased Reaction Biology Corp
T2 sequence (Q12866 21-999): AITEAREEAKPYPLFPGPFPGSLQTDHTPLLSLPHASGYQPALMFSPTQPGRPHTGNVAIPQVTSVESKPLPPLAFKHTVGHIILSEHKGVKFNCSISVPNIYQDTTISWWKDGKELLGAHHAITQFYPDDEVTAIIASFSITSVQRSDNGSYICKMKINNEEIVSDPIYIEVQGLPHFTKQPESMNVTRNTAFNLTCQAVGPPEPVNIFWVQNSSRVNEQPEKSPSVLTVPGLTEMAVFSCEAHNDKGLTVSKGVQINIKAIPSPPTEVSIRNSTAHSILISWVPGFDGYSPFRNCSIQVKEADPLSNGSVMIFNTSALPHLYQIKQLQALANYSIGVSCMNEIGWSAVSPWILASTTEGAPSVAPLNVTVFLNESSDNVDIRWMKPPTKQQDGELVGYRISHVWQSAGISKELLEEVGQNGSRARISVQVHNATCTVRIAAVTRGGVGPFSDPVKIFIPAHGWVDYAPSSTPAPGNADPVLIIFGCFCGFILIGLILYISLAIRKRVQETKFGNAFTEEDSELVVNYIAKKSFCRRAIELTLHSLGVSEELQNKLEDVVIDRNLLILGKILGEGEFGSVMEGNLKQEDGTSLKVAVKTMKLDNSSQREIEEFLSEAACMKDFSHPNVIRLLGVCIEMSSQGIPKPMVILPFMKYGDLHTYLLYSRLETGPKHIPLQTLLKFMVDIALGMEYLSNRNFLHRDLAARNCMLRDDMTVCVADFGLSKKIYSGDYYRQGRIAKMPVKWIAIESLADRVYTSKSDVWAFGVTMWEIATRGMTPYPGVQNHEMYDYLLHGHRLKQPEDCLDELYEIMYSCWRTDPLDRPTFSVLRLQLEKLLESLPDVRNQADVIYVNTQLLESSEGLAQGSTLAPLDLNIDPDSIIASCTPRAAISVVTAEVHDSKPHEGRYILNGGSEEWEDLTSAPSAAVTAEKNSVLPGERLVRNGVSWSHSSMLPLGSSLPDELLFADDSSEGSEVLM
How it was run: as §1

[1] = read-out: % Enzyme Activity (relative to DMSO controls) Run 1
[2] = read-out: % Enzyme Activity (relative to DMSO controls) Run 2

C=CC(=O)Nc1cccc(Nc2nc(Nc3ccc(OCCOC)c(F)c3)ncc2F)c1 [Compound 2]
inhibition at 3 µM (DYRK3): 14.1% | remaining activity at 3 µM (DYRK3; [1]): 86% | remaining activity at 3 µM (DYRK3; [2]): 85.9% | inhibition at 3 µM (c-MER): 33.6% | remaining activity at 3 µM (c-MER; [1]): 66.5% | remaining activity at 3 µM (c-MER; [2]): 66.4%
